In general, IC50 refers to the point on the concentration scale where inhibition reaches its midpoint.

Values joined by “and” are separate entries in the source; they are usually repeats but may differ in a detail not shown here. Equal entries are not always repeated.

The first experiment relates to OVCAR3 cells. The experiment in a line: Cell proliferation activity test (CyQUANT Direct). Type of experiment: cell-based. The conditions noted are these: Homo sapiens, OVCAR-3, 72 h, 3 days, 0.2% DMSO, CyQUANT fluorescence. Here is the method:
Materials and Cells: OVCAR3 cells were purchased from Nanjing Cobioer Biosciences Co., Ltd. RPMI-1640 medium, fetal bovine serum, and the CyQUANT Direct Cell Proliferation Assay kit were purchased from Thermo Fisher Scientific, USA; 96-well cell culture plates were sourced from Corning, USA.
Cell Culture: OVCAR3 cells were cultured with RPMI-1640 medium containing 10% fetal bovine serum and incubated in a 5% CO2 incubator at 37°C. Only cells in the logarithmic growth phase could be used for the test.
OVCAR3 cells were inoculated into a 96-well cell culture plate at 90 µL per well and incubated overnight in a 5% CO2 incubator at 37°C. The compound powder was dissolved in DMSO to prepare a stock solution of 10 mM. Then gradient dilution was performed for the compounds in the microplate to achieve a final concentration of 0-10 µM. 10 µL of cell culture medium containing compounds was added to each well to make the final DMSO content 0.2%. The cell plates were incubated in a 5% CO2 incubator at 37°C for 3 days. 100 µL of CyQUANT detection reagent was added to each well, reacted at 37°C for 60 min, and fluorescence detection was performed using the PerkinElmer Envision.
`Cc1cc2nc(n1)N1CCC(F)(F)C(C=CCC3CCN(CC3)c3cc(NS(=O)(=O)CCO)ccc3-n3cc-2nn3)C1` (centres unmarked) [Example 81, N-((3^4,7)-1^4,1^4-difluoro-2^6-methyl-3^1H-2(2,4)-pyrimidin-1(1,3),5(1,4)-dipiperidin-3(4,1)-triazole-4(1,2)-benzocyclooct-7-en-44-yl)-2-hydroxyethane-1-sulfonamide]: the IC50 is 34 nM.
Still for that read-out and setting: as for `Cc1cc2nc(n1)N1CCC(F)(F)C(CCCc3ccc(cc3)-c3cc(NS(=O)(=O)CCO)c(F)cc3C(=O)N2)C1` (centres unmarked) [Example 53, 2-Hydroxy-N-(1^4,1^4,5^5-trifluoro-2^6-methyl-4-oxo-3-aza-2(2,4)-pyrimidin-1(1,3)-piperidin-5(1,2),6(1,4)-diphenylheterocyclononane-5^4-yl)ethane-1-sulfonamide], the figure is 46 nM; as for `Cc1cc2nc(n1)N1CCC(F)=C(/C=C\CC3CCN(CC3)c3cc(NS(=O)(=O)CCO)ccc3-n3cc-2nn3)C1` [Example 82, N-((3^4Z,7Z)-1^4-fluoro-2^6-inethyl-1^1,1^2,1^3,1^6-tetrahydro-3^1H-2(2,4)-pyrimidin-1(1,5)-pyridin-5(1,4)-piperidin-3(4,1)-triazole-4(1,2)-benzylcyclooct-7-en-4^4-yl)-2-hydroxyethane-1-sulfonamide], 1280 nM; as for `Cc1cc2nc(n1)N1CCC(F)(F)C(/C=C\c3ccc(cc3)-c3cc(NS(=O)(=O)CCO)ccc3C(=O)N2)C1` (centres unmarked) [Example 43, N-(2^4,2^4-difluoro-1^6-methyl-7-oxo-8-aza-1(2,4)-pyrimidin-2(1,3)-piperidin-5(1,4),6(1,2)-diphenylcyclooct-3-en-6^5-yl)-2-hydroxyethane-1-sulfonamide], 2580 nM.
The same measure, in the same setting: the figure for `Cc1cc2nc(n1)N1CCC(F)=C(/C=C/CC3CCN(CC3)c3cc(NS(=O)(=O)CCO)ccc3-n3cc-2nn3)C1` [Example 83, N-((3^4Z,7E)-1^4-fluoro-2^6-methyl-1^1,1^2,1^3,16-tetrahydro-3^1H-2(2,4)-pyrimidin-1(1,5)-pyridin-5(1,4)-piperidin-3(4,1)-triazole-4(1,2)-benzylcyclooct-7-en-4^4-yl)-2-hydroxyethane-1-sulfonamide] is 100 nM.

The target in the next experiment is T1, Human KIF18A (amino acid sequence 1-417) (Homo sapiens, UniProt Q8NI77).
T1 construct: purchased Viva Biotech (Shanghai) Ltd
T1 sequence (Q8NI77 1-417): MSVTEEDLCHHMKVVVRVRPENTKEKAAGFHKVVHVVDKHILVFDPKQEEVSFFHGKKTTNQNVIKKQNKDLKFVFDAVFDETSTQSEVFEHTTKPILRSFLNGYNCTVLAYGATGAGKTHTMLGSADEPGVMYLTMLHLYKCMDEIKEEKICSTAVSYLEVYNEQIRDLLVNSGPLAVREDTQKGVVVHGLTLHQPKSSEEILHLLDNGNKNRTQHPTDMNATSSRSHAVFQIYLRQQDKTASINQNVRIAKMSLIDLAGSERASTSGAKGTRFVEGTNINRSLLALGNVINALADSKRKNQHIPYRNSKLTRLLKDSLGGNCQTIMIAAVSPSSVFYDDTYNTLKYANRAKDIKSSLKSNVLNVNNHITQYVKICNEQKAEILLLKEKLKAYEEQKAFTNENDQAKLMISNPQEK
The experiment in a line: Enzymatic activity test (ADP-Glo, microtubule-stimulated ATPase). Type of experiment: biochemical. The conditions noted are these: 60 µg/mL microtubules, 25 µM ATP, 2.5 nM KIF18A protein, 120 min at ambient temperature, chemiluminescence; read-out: KIF18A IC50. As to the method:
Materials: Human KIF18A (amino acid sequence 1-417) was purchased from Viva Biotech (Shanghai) Ltd.; the ADP-Glo™ protein kinase kit was acquired from Promega, USA; tubulin was sourced from Cytoskeleton, USA; and the 384-well assay plate and Envision multifunctional microplate reader were obtained from PerkinElmer, USA.
Enzymatic Activity Test: The compound powder was dissolved in DMSO to prepare a stock solution of 10 mM. Then gradient dilution was performed for the compounds in the microplate to achieve a final concentration of 0-10 µM. Then, 2.5 µL each of tubulin, compound, ATP, and KIF18A protein were added to the microplate in sequence for reaction at ambient temperature for 120 min. The final concentrations in the enzyme reaction were 60 µg/mL for microtubules, 25 µM for ATP, and 2.5 nM for KIF18A protein. After the enzyme reaction, 10 µL of ADP-GLO reaction reagent was added to each well and incubated at room temperature for 30 min. After that, 20 µL of detection reagent was added to each well and incubated at room temperature for 30 min in the dark. Finally, chemiluminescence detection was performed using the PerkinElmer Envision.
A general note: In ADP-Glo the light output rises with the ADP produced.
In the case of `Cc1cc2nc(n1)N1CCC(F)(F)C(/C=C\C3=CC=C(S3)c3cc(NS(=O)(=O)CCO)ccc3C(=O)N2)C1` (centres unmarked) [Example 62, N-(2^4,2^4-difluoro-1^6-methyl-7-oxo-8-aza-1(2,4)-pyrimidin-2(1,3)-piperidin-5(2,5)-thiophene-6(1,2)-benzeneheterocyclooct-3-en-6^5-yl)-2-hydroxyethane-1-sulfonamide], the IC50 worked out at 35 nM.
The same measure, in the same setting: the figure for `Cc1cc2nc(n1)N1CCC(F)(F)C(C=CCc3csc(c3)-c3cc(NS(=O)(=O)CCO)ccc3C(=O)N2)C1` (centres unmarked) [Example 66, N-(1^4,1^4-difluoro-2^6-methyl-4-oxo-3-aza-2(2,4)-pyrimidin-1(1,3)-piperidin-6(2,4)-thiophene-5(1,2)-benzoazacyclon-8-en-5^4-yl)-2-hydroxyethane-1-sulfonamide] is 43 nM; for `COc1cc2nc(n1)N1CCC(F)(F)C(CCC3=CC=C(S3)c3cc(NS(=O)(=O)CCO)ccc3C(=O)N2)C1` (centres unmarked) [Example 61, N-(2^4,2^4-difluoro-1^6-methoxy-7-oxo-8-aza-1(2,4)-pyrimidin-2(1,3)-piperidin-5(2,5)-thiophene-6(1,2)-benzeneheterocyclooctan-6^3-yl)-2-hydroxyethane-1-sulfonamide] it is 60 nM.
Turning to `Cc1cc2nc(n1)N1CCC(F)(F)C(CCCc3ccc(cc3)-c3cc(NS(=O)(=O)CCO)c(F)cc3C(=O)N2)C1` (centres unmarked) [Example 53, 2-Hydroxy-N-(1^4,1^4,5^5-trifluoro-2^6-methyl-4-oxo-3-aza-2(2,4)-pyrimidin-1(1,3)-piperidin-5(1,2),6(1,4)-diphenylheterocyclononane-5^4-yl)ethane-1-sulfonamide], the IC50 came out at 49 nM.
Same read-out and setting: the figure for `COc1cc2nc(n1)N1CCC(F)(F)C(/C=C\C3=CC=C(S3)c3cc(NS(=O)(=O)CCO)ccc3C(=O)N2)C1` (centres unmarked) [Example 60, N-(2^4,2^4-difluoro-1^1-methoxy-7-oxo-8-aza-1(2,4)-pyrimidin-2(1,3)-piperidin-5(2,5)-thiophene-6(1,2)-benzenecyclooctane-3-en-6^5-yl)-2-hydroxyethane-1-sulfonamide] is 40 nM.
Same read-out and setting: as for `Cc1cc2nc(n1)NCC(C)C=CC1=CC=C(S1)c1cc(NS(=O)(=O)CCO)ccc1C(=O)N2` (centres unmarked) [Example 70, N-(5^6,8-dimethyl-3-oxo-4,6-diaza-5(4,2)-pyrimidin-1(2,5)-thiophene-2(1,2)-benzenecyclodec-9-en-25-yl)-2-hydroxyeth ane-1-sulfonamide], the figure is 251 nM; as for `Cc1cc2nc(n1)N1CCC(F)=C(/C=C\CC3CCN(CC3)c3cc(NS(=O)(=O)CCO)ccc3-n3cc-2nn3)C1` [Example 82, N-((3^4Z,7Z)-1^4-fluoro-2^6-inethyl-1^1,1^2,1^3,1^6-tetrahydro-3^1H-2(2,4)-pyrimidin-1(1,5)-pyridin-5(1,4)-piperidin-3(4,1)-triazole-4(1,2)-benzylcyclooct-7-en-4^4-yl)-2-hydroxyethane-1-sulfonamide], 1020 nM; as for `Cc1cc2nc(n1)N1CCC(F)(F)C(CCC3=CC=C(S3)c3cc(NS(=O)(=O)CCO)ccc3C(=O)N2)C1` (centres unmarked) [Example 63, N-(2^4,2^4-difluoro-1^6-methyl-7-oxo-8-aza-1(2,4)-pyrimidin-2(1,3)-piperidin-5(2,5)-thiophene-6(1,2)-benzeneheterocyclooctan-6^5-yl)-2-hydroxyethane-1-sulfonamide], 126 nM.
In the case of “2-Hydroxy-N-(8-methyl-2^1,3-dione-2^2,2^3-dihydro-2^1H-4,6-diaza-5(2,6)-pyridin-1(1,4)-piperidin-2(5,4)-indenoundecan e-9-en-2^7-yl)ethane-1-sulfonamide [Example 38]”, the IC50 was determined as 113 nM.
Turning to `COc1cc2nc(n1)N1CCC(F)(F)C(/C=C\CC3=CC=C(S3)c3cc(NS(=O)(=O)CCO)ccc3C(=O)N2)C1` (centres unmarked) [Example 64, N-(1^4,1^4-difluoro-2^6-methoxy-4-oxo-3-aza-2(2,4)-pyrimidin-1(1,3)-piperidin-6(2,5)-thiophene-5(1,2)-benzoazacyclon-8-en-5^4-yl)-2-hydroxyethane-1-sulfonamide], the IC50 came to 97 nM.
Same read-out and setting: as for `COc1cc2nc(n1)N1CCC(F)(F)C(CCCC3=CC=C(S3)c3cc(NS(=O)(=O)CCO)ccc3C(=O)N2)C1` (centres unmarked) [Example 65, N-(1^4,1^4-difluoro-2^6-methoxy-4-oxo-3-aza-2(2,4)-pyrimidin-1(1,3)-piperidin-6(2,5)-thiophene-5(1,2)-benzoazacyclononane-5^4-yl)-2-hydroxyethane-1-sulfonamide], the figure is 135 nM; as for `Cc1cc2nc(n1)N1CCC(F)(F)C(/C=C/CC3CC4(C3)CN(C4)c3cc(NS(=O)(=O)CCO)ccc3C(=O)N2)C1` (centres unmarked) [Example 47, N-(6^4,6^4-difluoro-5^1-methyl-3-oxo-4-aza-5(4,2)-pyrimidin-6(1,3)-piperidin-1(1,3)-azetidin-2(1,2)-benzene-10(1,3)-cyclobutyramide-7-en-2^5-yl)-2-hydroxyethane-1-sulfonamide], 566 nM and 625 nM; as for `COc1cc2nc(n1)N1CCC(F)(F)C(CCCc3c(F)cc(cc3F)-c3cc(NS(=O)(=O)CCO)ccc3C(=O)N2)C1` (centres unmarked) [Example 59, 2-hydroxy-N-(1^4,1^4,6^3,6^5-tetrafluoro-2^6-methoxy-4-oxo-3-aza-2(2,4)-pyrimidin-1(1,3)-piperidin-5(1,2),6(1,4)-diphenylheterocyclononane-54-yl)ethane-1-sulfonamide], 223 nM.
`Cc1cc2nc(n1)N1CCC(F)(F)C(CCCc3csc(c3)-c3cc(NS(=O)(=O)CCO)ccc3C(=O)N2)C1` (centres unmarked) [Example 68, N-(1^4,1^4-difluoro-2^6-methyl-4-oxo-3-aza-2(2,4)-pyrimidin-1(1,3)-piperidin-6(2,4)-thiophene-5(1,2)-benzoazacyclononane-5^4-yl)-2-hydroxyethane-1-sulfonamide]: the IC50 came out at 155 nM.
`Cc1cc2nc(n1)N1CCC(F)(F)C(CCc3csc(c3)-c3cc(NS(=O)(=O)CCO)ccc3C(=O)N2)C1` (centres unmarked) [Example 69, N-(2^4,2^4-difluoro-1^6-methyl-7-oxo-8-aza-1(2,4)-pyrimidin-2(1,3)-piperidin-5(2,4)-thiophene-6(1,2)-benzeneheterocyclooctan-6^5-yl)-2-hydroxyethane-1-sulfonamide]: the IC50 is 45 nM.

For the origin of these results see patent publication EP4772509A1, “KINESIN KIF18A INHIBITOR, AND APPLICATION THEREOF” (Shanghai Apeiron Therapeutics Company Limited, priority 2023, dated 2025).
